Earlier results in patent US20090215676A1, “Method of treatment” (priority 2005, published 2009).
Like-named read-outs stand apart in the source and are kept apart here.

Columns and labels:
[1] = test system: GH and IGF-1 levels; conditions: for acromegalic patients in whom GH and IGF-1 levels are reduced: human, in vivo; for share of responding patients whose GH and IGF-1 levels are reduced to normal levels (full responders): of the approximately 90% who respond
[2] = test system: IGF-I levels; conditions: for daily pegvisomant dose needed: former pegvisomant registration studies
[3] = test system: tumor size
[4] = test system: IGF-I; conditions: alternate day administration, monotherapy; of 10 patients
[5] = test system: insulin sensitivity; conditions: in vivo
[6] = test system: IGF-I; conditions: once weekly pegvisomant dose of 80 mg, monotherapy

Molecule	acromegalic patients in whom GH and IGF-1 levels are reduced [1]	share of responding patients whose GH and IGF-1 levels are reduced to normal levels (full responders) [1]	daily pegvisomant dose needed ([2]; one subject)	daily dose needed by the average patient ([2]; pegvisomant monotherapy)	acromegalics with IGF-I levels normalized ([2]; pegvisomant monotherapy, listed as PEGVISOMANT)	acromegalics with IGF-I levels normalized ([2]; pegvisomant monotherapy, listed as Pegvisomant)	daily pegvisomant dose needed ([2]; two subjects)	effect on tumor growth ([3]; clinical experience)	effect on mean tumor size ([3]; follow-up with pegvisomant monotherapy to date)	patients in whom the regimen failed to maintain IGF-I within the age-adjusted normal range [4]	effect on insulin sensitivity [5]	share of patients with IGF-I normalized [6]
CC(C)[C@@H]1NC(=O)[C@H](CCCCN)NC(=O)[C@@H](Cc2c[nH]c3ccccc23)NC(=O)[C@H](Cc2ccc(O)cc2)NC(=O)[C@@H](NC(=O)[C@H](N)Cc2ccc3ccccc3c2)CSSC[C@@H](C(=O)N[C@H](C(N)=O)[C@@H](C)O)NC1=O [LANREOTIDE]	approximately 90%	one-half to two-thirds	–	–	–	–	–	–	–	–	–	–
C[C@@H](O)[C@@H]1NC(=O)[C@H](CCCCN)NC(=O)[C@@H](Cc2c[nH]c3ccccc23)NC(=O)[C@H](Cc2ccccc2)NC(=O)[C@@H](NC(=O)[C@H](N)Cc2ccccc2)CSSC[C@@H](C(=O)N[C@H](CO)[C@@H](C)O)NC1=O [OCTREOTIDE]	approximately 90%	one-half to two-thirds	–	–	–	–	–	–	–	–	–	–
pegvisomant	–	–	35 mg	approximately 20 mg	75%-95%	> 90%	40 mg	does not prevent tumor growth in some patients	do not indicate that pegvisomant increases mean tumor size	7 patients	improves insulin sensitivity as compared to somatostatin analogues	less than one-third
